{
  "source": "patent US12691071B2",
  "about": "(SHANGHAI YONSUN BIOTECHNOLOGY CO., LTD., priority 2021, dated 2026)",
  "origin": "cited, not measured here",
  "data": [
    {"smiles": "COC[C@@H](NC(C)=O)C(=O)NCc1ccccc1", "note": "[Lacosamide, (2R)-2-acetamido-N-benzyl-3-methoxypropanamide]", "values": [
      {"measurement": "solubility in acetonitrile or ethanol", "setting": "acetonitrile or ethanol", "result": "slightly soluble"},
      {"measurement": "solubility in methanol or acetone", "setting": "methanol or acetone", "result": "easily soluble"}
    ]}
  ]
}
